From patent US20120190752A1, “EXO-S-MECAMYLAMINE METHOD, USE, AND COMPOUND FOR TREATMENT” (Targacept Inc., priority 2009, published 2012)

Test system: subjects with major depressive disorder (MDD) who were inadequate responders to citalopram
Assay: SIS (Sheehan Irritability Scale), total and individual items, Phase 2b add-on trial
Format: in vivo, human
Design: SIS Adj. Mean change / SIS total score change Adjusted Mean / SIS Anger With Others change Adjusted Mean / SIS Anger With Self change Adjusted Mean / SIS Edginess change Adjusted Mean / SIS Irritability change Adjusted Mean / SIS Moodiness change Adjusted Mean / SIS Temper change Adjusted Mean: scale not given here
Description: In more detail, a multi-center double-blind, randomized, placebo-controlled, parallel group, flexible dose titration study of TC-5214 as adjunctive therapy in subjects with major depressive disorder (MDD) who were inadequate responders to citalopram was conducted in centers in the US and India. The study consisted of a screening period, baseline/washout period, open-label phase, double-blind phase, and a follow-up visit. Subject participation in the study could continue for up to 16 weeks of treatment. Following a washout period of up to 28 days for other antidepressants, subjects with MDD and a MADRS total score >/=28 and a Clinical Global Impression-Severity (CGI-S) score >/=4 were enrolled on Day 1 into an open-label citalopram-only phase of the study. This phase lasted 8 weeks, with citalopram (CIT) dose increased from a once-daily dose of 20 mg (Day 1 through Week 4) to 40 mg (Week 4 through Week 8). A total of 579 subjects entered the open-label citalopram phase. At Week 8, subjects who tolerated 40 mg CIT, but whose MADRS score was reduced <50% from baseline and no lower than 17, and CGI-S≧4, were considered inadequate responders. These subjects (n=270) were randomized in a double-blind fashion to receive either placebo or TC-5214-23 as add-on therapy to continued CIT. The double-blind phase of the study also lasted 8 weeks (Week 8 to Week 16). Study drug, TC-5214-23 or placebo, was started at 2 mg daily (1 mg twice per day [BID] dosing), added on to continuing CIT (40 mg PO qd). After 2 weeks of treatment, the dose of TC-5214 could be increased to 4 mg (2 mg BID) or continued unchanged, with up-titration based upon good tolerability and inadequate therapeutic response. After a further 2 weeks, the dose of TC-5214 could be increased again to 8 mg (4 mg BID) if judged appropriate by the investigator, based upon good tolerability and inadequate therapeutic response. At any time during the double-blind phase of the study, placebo or TC-5214-23 could be reduced to the previous dose level following the emergence of unacceptable adverse events (AEs). […] At this follow-up, any signs or symptoms of relapse were evaluated. If a subject was prematurely discontinued from the study between Week 8 and Week 16 for any reason, the investigator was to make every effort to perform all evaluations as per protocol, assuming the subject had reached the end of the double-blind add-on treatment phase. These evaluations were to be made as soon as possible and within 2 weeks of discontinuation. […] There was no meaningful difference in results as a function of age, gender, site, or smoking status. [table] With regard to efficacy endpoints, the following tables present efficacy used in the ITT (Intent-to-Treat) and PP (Per Protocol) populations unless otherwise specific. The primary inference was based upon Week 16 visit using the ITT population. Change from baseline was obtained by subtracting the baseline values from the individual on-treatment values. Change from Week 16 was obtained by subtracting the Week 16 values from the individual follow-up visit (Week 18/19) values. If either the baseline or Week 16 or on-treatment or follow-up value was missing, the change from baseline or Week 16 value was also set to missing. To account for missing data, the last observation carry forward (LOCF) method was used for the ITT and PP populations. Thus, the last available on-therapy observation for a subject, including the observation at premature discontinuation, was used to estimate subsequent missing data points. For efficacy, baseline data were collected at Week 8 in the double-blind augmentation phase electronic case report form pages. For SIS, the endpoint was the change from Week 8 (double-blind baseline) to Week 16 of the SIS. Changes were analyzed using ANCOVA. Each SIS item score was also analyzed using ANCOVA. […]

[1] = ITT population, Double Blind Week 16 LOCF, change from DB baseline
[2] = ITT population, Double Blind Week 18 LOCF (Follow-up), change from Week 16
[3] = PP population, Double Blind Week 16 LOCF, change from DB baseline
[4] = PP population, Double Blind Week 18 LOCF (Follow-up), change from Week 16

Structure (SMILES): CN[C@@]1(C)[C@@H]2CC[C@@H](C2)C1(C)C [TC5214]
- SIS Anger With Others change Adjusted Mean [1]: −2.56
- SIS Anger With Others change Mean Difference between TC-5214 and Placebo [1]: 1.22
- SIS Anger With Self change Adjusted Mean [1]: −2.29
- SIS Anger With Self change Mean Difference between TC-5214 and Placebo [1]: 1.01
- SIS Edginess change Adjusted Mean [1]: −2.55
- SIS Edginess change Mean Difference between TC-5214 and Placebo [1]: 1.14
- SIS Frustration change Adjusted Mean [1]: −2.74
- SIS Frustration change Mean Difference between TC-5214 and Placebo [1]: 1.42
- SIS Irritability change Adjusted Mean [1]: −2.74
- SIS Irritability change Mean Difference between TC-5214 and Placebo [1]: 1.38
- SIS Moodiness change Adjusted Mean [1]: −3.00
- SIS Moodiness change Mean Difference between TC-5214 and Placebo [1]: 1.51
- SIS Temper change Adjusted Mean [1]: −2.37
- SIS Temper change Mean Difference between TC-5214 and Placebo [1]: 1.19
- SIS Anger With Others change Adjusted Mean [2]: −0.07
- SIS Anger With Others change Mean Difference between TC-5214 and Placebo [2]: 0.01
- SIS Anger With Self change Adjusted Mean [2]: −0.07
- SIS Anger With Self change Mean Difference between TC-5214 and Placebo [2]: 0.09
- SIS Edginess change Adjusted Mean [2]: −0.24
- SIS Edginess change Mean Difference between TC-5214 and Placebo [2]: 0.01
- SIS Frustration change Adjusted Mean [2]: −0.09
- SIS Frustration change Mean Difference between TC-5214 and Placebo [2]: −0.06
- SIS Irritability change Adjusted Mean [2]: −0.14
- SIS Irritability change Mean Difference between TC-5214 and Placebo [2]: −0.08
- SIS Moodiness change Adjusted Mean [2]: −0.13
- SIS Moodiness change Mean Difference between TC-5214 and Placebo [2]: −0.05
- SIS Temper change Adjusted Mean [2]: −0.11
- SIS Temper change Mean Difference between TC-5214 and Placebo [2]: −0.07
- SIS Anger With Others change Adjusted Mean [3]: −2.77
- SIS Anger With Others change Mean Difference between TC-5214 and Placebo [3]: 1.42
- SIS Anger With Self change Adjusted Mean [3]: −2.54
- SIS Anger With Self change Mean Difference between TC-5214 and Placebo [3]: 1.13
- SIS Edginess change Adjusted Mean [3]: −2.81
- SIS Edginess change Mean Difference between TC-5214 and Placebo [3]: 1.36
- SIS Frustration change Adjusted Mean [3]: −3.00
- SIS Frustration change Mean Difference between TC-5214 and Placebo [3]: 1.59
- SIS Irritability change Adjusted Mean [3]: −3.00
- SIS Irritability change Mean Difference between TC-5214 and Placebo [3]: 1.58
- SIS Moodiness change Adjusted Mean [3]: −3.34
- SIS Moodiness change Mean Difference between TC-5214 and Placebo [3]: 1.71
- SIS Temper change Adjusted Mean [3]: −2.55
- SIS Temper change Mean Difference between TC-5214 and Placebo [3]: 1.36
- SIS Anger With Others change Adjusted Mean [4]: −0.10
- SIS Anger With Others change Mean Difference between TC-5214 and Placebo [4]: 0.03
- SIS Anger With Self change Adjusted Mean [4]: −0.09
- SIS Anger With Self change Mean Difference between TC-5214 and Placebo [4]: 0.11
- SIS Edginess change Adjusted Mean [4]: −0.27
- SIS Edginess change Mean Difference between TC-5214 and Placebo [4]: 0.05
- SIS Frustration change Adjusted Mean [4]: −0.09
- SIS Frustration change Mean Difference between TC-5214 and Placebo [4]: −0.04
- SIS Irritability change Adjusted Mean [4]: −0.14
- SIS Irritability change Mean Difference between TC-5214 and Placebo [4]: −0.07
- SIS Moodiness change Adjusted Mean [4]: −0.13
- SIS Moodiness change Mean Difference between TC-5214 and Placebo [4]: −0.01
- SIS Temper change Adjusted Mean [4]: −0.14
- SIS Temper change Mean Difference between TC-5214 and Placebo [4]: −0.00
